Test systems include SK-MEL-2 melanoma; HL-60(TB) leukemia; A549 NSCLC; SK-MEL-28 melanoma; NCI/ADR-RES ovarian; HCC-2998 colon; MDA-MB-231 breast; DU-145 prostate; IGROV1 ovarian; OVCAR-5 ovarian; UACC-62 melanoma.
Assay in all cases: DTP human tumour cell line panel, 48 h

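Values below derive from 48-hour exposures of cells grown in 96-well plates, with endpoints linearly interpolated between the two concentrations bracketing the appropriate inhibition level. At the TGI there is no net growth.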

In general, TGI refers to the concentration at which net growth stops. High values mean lower sensitivity of the cells, low ones greater sensitivity of the cells. For the molecule `CC(C)(C)OC(=O)NC1CC2(C=C(Br)C(=O)C(Br)=C2)OC1=O` (configuration not stated), the TGI in the test on SK-MEL-2 melanoma came out at 32 µM; with HL-60(TB) leukemia, 7.65 µM; in the test on A549 NSCLC, 38.7 µM; in the test on SK-MEL-28 melanoma, 37.9 µM; in the test on NCI/ADR-RES ovarian it was 34.8 µM; in the test on HCC-2998 colon, 24.7 µM. Further, the TGI in the test with MDA-MB-231 breast turned out to be 32.6 µM; in the test on DU-145 prostate, 26.4 µM; with IGROV1 ovarian, 31.2 µM; in the test on OVCAR-5 ovarian, 35.1 µM; in the test on UACC-62 melanoma it was 32.4 µM.
For the molecule `CC[C@@]1(O)C(=O)OCc2c1cc1n(c2=O)Cc2c-1nc1ccccc1c2/C=N\NC(=O)C1CCCN1` (some centres not stated), the TGI with SK-MEL-2 melanoma is 58.4 µM; with HL-60(TB) leukemia it was over 100 µM; in the test with A549 NSCLC, over 100 µM; in the test with SK-MEL-28 melanoma, over 100 µM; in the test with NCI/ADR-RES ovarian, 20.5 µM; in the test on HCC-2998 colon, over 53.7 µM. Besides, the TGI in the test on MDA-MB-231 breast is over 100 µM; with DU-145 prostate, over 100 µM; in the test on IGROV1 ovarian it was over 96.6 µM; in the test on OVCAR-5 ovarian, over 73.2 µM; with UACC-62 melanoma it was 0.653 µM.
In the case of `Cc1ccc2c(c1)C(=O)c1nc(C)ccc1C2=O`, the TGI in the test on SK-MEL-2 melanoma is over 100 µM; with HL-60(TB) leukemia, 70.3 µM; with A549 NSCLC it was over 100 µM; in the test with SK-MEL-28 melanoma, over 100 µM; in the test on NCI/ADR-RES ovarian, 59.1 µM; in the test with HCC-2998 colon it was 87.8 µM. In addition, the TGI is 62.1 µM in the test on MDA-MB-231 breast; over 100 µM in the test with DU-145 prostate; 66.5 µM with IGROV1 ovarian; over 100 µM in the test on OVCAR-5 ovarian; 67.3 µM with UACC-62 melanoma.
Take `O=C(O)CCC(=O)c1ccc2c(c1)C(C(=O)O)CC2` (configuration not stated): the TGI in the test on SK-MEL-2 melanoma, with HL-60(TB) leukemia, with A549 NSCLC, in the test on SK-MEL-28 melanoma, in the test on NCI/ADR-RES ovarian and in the test with HCC-2998 colon was over 100 µM each time. The TGI with MDA-MB-231 breast, in the test on DU-145 prostate, in the test on IGROV1 ovarian, in the test with OVCAR-5 ovarian and in the test with UACC-62 melanoma was over 100 µM throughout.
Consider `Cc1ccc(SC2C(=O)C3CC(OCc4ccccc4)C2(C)C3(C)C)cc1` (configuration not stated), for which the TGI in the test on SK-MEL-2 melanoma, with HL-60(TB) leukemia, in the test on A549 NSCLC, with SK-MEL-28 melanoma, in the test on NCI/ADR-RES ovarian and with HCC-2998 colon was over 100 µM in each case. Further, the TGI in the test on MDA-MB-231 breast, in the test with DU-145 prostate, in the test on IGROV1 ovarian, with OVCAR-5 ovarian and in the test on UACC-62 melanoma was over 100 µM throughout.
On to `CCOC(=O)c1c(N=P(c2ccccc2)(c2ccccc2)c2ccccc2)nnc(-c2ccccc2)c1-c1ccccc1`, for which the TGI in the test on SK-MEL-2 melanoma, with HL-60(TB) leukemia, in the test with A549 NSCLC, in the test on SK-MEL-28 melanoma, with NCI/ADR-RES ovarian and with HCC-2998 colon was over 100 µM throughout. Besides, the TGI with MDA-MB-231 breast, with DU-145 prostate, with IGROV1 ovarian, in the test with OVCAR-5 ovarian and in the test on UACC-62 melanoma was over 100 µM each time.
Take `COc1ccc(-n2[nH]nc(C(N)=O)c2=O)cc1`: the TGI in the test with SK-MEL-2 melanoma, in the test on HL-60(TB) leukemia, in the test with A549 NSCLC, with SK-MEL-28 melanoma, in the test on NCI/ADR-RES ovarian and with HCC-2998 colon was over 100 µM in each case. Also, the TGI with MDA-MB-231 breast, with DU-145 prostate, with IGROV1 ovarian, with OVCAR-5 ovarian and with UACC-62 melanoma was over 100 µM each time.
Consider `c1ccc(C(NCC2CCO2)(c2ccccc2)c2ccccc2)cc1` (configuration not stated), for which the TGI in the test on SK-MEL-2 melanoma was 42.5 µM; in the test with HL-60(TB) leukemia, 48.8 µM; in the test on A549 NSCLC, 30.6 µM; in the test with SK-MEL-28 melanoma it was over 100 µM; in the test on NCI/ADR-RES ovarian, 28.9 µM; in the test with HCC-2998 colon, 30.6 µM. Also, the TGI in the test with MDA-MB-231 breast stood at 70.1 µM; with DU-145 prostate, 71.3 µM; with IGROV1 ovarian, 32.7 µM; in the test on OVCAR-5 ovarian, 30.5 µM; with UACC-62 melanoma, 32 µM.
For `COC(=O)C1Cc2cc3c(cc2C1=O)CCCC3` (configuration not stated), the TGI with SK-MEL-2 melanoma, in the test with HL-60(TB) leukemia, with A549 NSCLC, in the test with SK-MEL-28 melanoma, in the test with NCI/ADR-RES ovarian and with HCC-2998 colon was over 100 µM throughout. The TGI in the test on MDA-MB-231 breast, in the test with DU-145 prostate, in the test with IGROV1 ovarian, with OVCAR-5 ovarian and in the test on UACC-62 melanoma was over 100 µM throughout.
Take `CC(C)(C)OC(=O)N(CCCCNC(=O)OCc1ccccc1)CCCNC(=O)OCc1ccccc1`: the total growth inhibition concentration (TGI) was over 100 µM in the test on SK-MEL-2 melanoma; 53.9 µM with HL-60(TB) leukemia; over 100 µM in the test with A549 NSCLC; over 100 µM with SK-MEL-28 melanoma; over 100 µM in the test with NCI/ADR-RES ovarian; over 100 µM in the test on HCC-2998 colon. The TGI in the test with MDA-MB-231 breast, with DU-145 prostate, in the test with IGROV1 ovarian, in the test on OVCAR-5 ovarian and in the test with UACC-62 melanoma was over 100 µM throughout.
As for `CSc1ccc(-c2cc(-c3nc4ccccc4[nH]3)no2)cc1`, the TGI was 49.4 µM in the test with SK-MEL-2 melanoma; 55.3 µM in the test with HL-60(TB) leukemia; 90.8 µM in the test with A549 NSCLC; over 100 µM in the test on SK-MEL-28 melanoma; 64.1 µM in the test on NCI/ADR-RES ovarian; 32.1 µM in the test on HCC-2998 colon. Also, the TGI was over 100 µM with MDA-MB-231 breast; over 100 µM in the test with DU-145 prostate; over 100 µM with IGROV1 ovarian; over 100 µM in the test with OVCAR-5 ovarian; 39.1 µM in the test with UACC-62 melanoma.
With `CC(C)CCC[C@@H](C)[C@H]1CC[C@H]2[C@@H]3CC[C@H]4C[C@@H](CCC=C(c5cc(Cl)c(O)c(C(=O)O)c5)c5cc(Cl)c(O)c(C(=O)O)c5)CC[C@]4(C)[C@H]3CC[C@]12C`, the TGI in the test with SK-MEL-2 melanoma, with HL-60(TB) leukemia, with A549 NSCLC, in the test on SK-MEL-28 melanoma, with NCI/ADR-RES ovarian and in the test on HCC-2998 colon was over 100 µM throughout. In addition, the total growth inhibition concentration (TGI) in the test with MDA-MB-231 breast, in the test on DU-145 prostate, with IGROV1 ovarian, with OVCAR-5 ovarian and in the test with UACC-62 melanoma was over 100 µM each time.

For the origin of these results see PubChem BioAssay (NCI).
